Assay results reported in patent US20250214991A1 (Oncopia Therapeutics, Inc. d/b/a/ SK Life Science Labs, priority 2022, published 2025).

Assays:
CRBN/DDB1 = CRBN/DDB1 (Homo sapiens (Human), UniProt Q96SW2); assay: IC50 measurements for binding to CRBN/DDB1 (HTRF); conditions: His tagged CRBN+DDB, Cy5-labeled Thalidomide probe, one hour
Outline: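 Serially diluted compounds compete with a Cy5-labeled thalidomide tracer (60 nM) for His-tagged CRBN-DDB1 (2 nM), detected via anti-6His Tb cryptate (0.4 nM); buffer HEPES pH 7.5 with TCEP, Brij-35, NaCl, BSA. One-hour room-temperature incubation, HTRF signal read, IC50 by four-parameter curve.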

IKZF2 = IKZF2 (Homo sapiens (Human), UniProt Q96SW2+Q9UKS7); assay: In vitro IKZF2 HiBit Assay (HEK293T Flp-in-HiBiT cells); type: cell-based; conditions: HEK293T Flp-in-HiBiT cells, 6 hrs incubation; for DC50: read-out: IKZF2 HiBit DC50; for Dmax: HEK-293T, read-out: IKZF2 HiBit Dmax (%)
Chain of IKZF2 (Q9UKS7 whole entry): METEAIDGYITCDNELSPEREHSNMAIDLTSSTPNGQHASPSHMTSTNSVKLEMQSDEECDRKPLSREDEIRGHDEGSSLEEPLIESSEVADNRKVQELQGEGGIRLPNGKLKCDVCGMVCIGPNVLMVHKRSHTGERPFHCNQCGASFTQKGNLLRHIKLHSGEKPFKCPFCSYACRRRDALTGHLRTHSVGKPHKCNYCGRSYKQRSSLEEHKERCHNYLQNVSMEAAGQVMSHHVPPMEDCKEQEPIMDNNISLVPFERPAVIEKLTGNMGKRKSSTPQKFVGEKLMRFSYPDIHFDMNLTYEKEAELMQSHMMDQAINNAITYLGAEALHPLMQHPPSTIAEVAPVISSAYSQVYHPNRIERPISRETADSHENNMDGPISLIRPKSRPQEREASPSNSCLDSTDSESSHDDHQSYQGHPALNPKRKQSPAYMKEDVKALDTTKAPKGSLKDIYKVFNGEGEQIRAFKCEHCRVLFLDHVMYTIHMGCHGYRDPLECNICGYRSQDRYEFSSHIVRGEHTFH
Chain of IKZF2 (Q96SW2 whole entry): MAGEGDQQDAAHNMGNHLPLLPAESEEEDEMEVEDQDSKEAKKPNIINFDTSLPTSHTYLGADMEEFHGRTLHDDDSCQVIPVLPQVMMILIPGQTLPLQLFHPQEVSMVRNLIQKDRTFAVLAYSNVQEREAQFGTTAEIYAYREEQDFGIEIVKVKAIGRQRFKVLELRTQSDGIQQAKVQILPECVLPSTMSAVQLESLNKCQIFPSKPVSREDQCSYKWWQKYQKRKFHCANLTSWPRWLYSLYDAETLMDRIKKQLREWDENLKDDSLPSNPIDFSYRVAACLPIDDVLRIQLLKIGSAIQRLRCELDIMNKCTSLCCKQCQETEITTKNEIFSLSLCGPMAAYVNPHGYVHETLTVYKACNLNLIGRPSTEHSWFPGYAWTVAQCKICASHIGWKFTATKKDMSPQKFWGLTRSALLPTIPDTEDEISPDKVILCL
Chain of IKZF2 (Q16531 2-1140 partner): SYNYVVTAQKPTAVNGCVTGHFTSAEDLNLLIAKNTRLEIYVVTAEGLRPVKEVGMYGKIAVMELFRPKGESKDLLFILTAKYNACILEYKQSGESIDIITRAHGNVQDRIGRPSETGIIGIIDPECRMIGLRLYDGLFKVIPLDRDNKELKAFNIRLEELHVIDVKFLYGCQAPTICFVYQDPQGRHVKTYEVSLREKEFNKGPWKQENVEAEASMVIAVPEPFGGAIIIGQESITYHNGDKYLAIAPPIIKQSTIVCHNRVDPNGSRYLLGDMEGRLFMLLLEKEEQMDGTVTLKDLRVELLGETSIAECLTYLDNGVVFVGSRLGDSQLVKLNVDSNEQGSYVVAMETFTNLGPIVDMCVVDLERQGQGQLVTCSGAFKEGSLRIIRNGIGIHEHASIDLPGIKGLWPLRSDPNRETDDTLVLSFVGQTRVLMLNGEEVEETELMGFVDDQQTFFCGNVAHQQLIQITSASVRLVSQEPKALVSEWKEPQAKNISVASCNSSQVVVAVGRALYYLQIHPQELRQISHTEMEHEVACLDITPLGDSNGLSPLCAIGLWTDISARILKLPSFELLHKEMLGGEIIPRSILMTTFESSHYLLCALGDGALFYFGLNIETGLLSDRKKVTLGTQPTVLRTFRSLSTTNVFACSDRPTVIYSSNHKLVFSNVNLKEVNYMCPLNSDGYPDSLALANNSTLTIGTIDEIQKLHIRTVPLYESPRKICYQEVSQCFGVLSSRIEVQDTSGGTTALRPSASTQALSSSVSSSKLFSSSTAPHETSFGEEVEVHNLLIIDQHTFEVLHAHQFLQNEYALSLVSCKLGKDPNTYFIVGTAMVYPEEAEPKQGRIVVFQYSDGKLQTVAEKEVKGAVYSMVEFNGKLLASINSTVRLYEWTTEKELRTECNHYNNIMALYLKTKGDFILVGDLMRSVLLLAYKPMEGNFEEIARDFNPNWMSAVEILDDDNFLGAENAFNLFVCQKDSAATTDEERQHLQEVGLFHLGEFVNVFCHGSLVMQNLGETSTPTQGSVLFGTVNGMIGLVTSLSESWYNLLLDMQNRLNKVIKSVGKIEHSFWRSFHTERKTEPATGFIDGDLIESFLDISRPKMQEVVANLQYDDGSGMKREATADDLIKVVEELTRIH
Outline: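 Remaining tagged Helios was read as lytic HiBiT/LgBiT luminescence normalized to DMSO, yielding binned DC50 and Dmax values. Treatment ran 6 h, with compounds at 11 three-fold doses diluted from 1 mM and 0.1% final DMSO. The cells were HEK293T Flp-in with CRISPR knock-in of HiBiT at the IKZF2 N-terminus.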

IKZF1 = IKZF1 (Homo sapiens (Human), UniProt Q13422+Q96SW2); assay: In vitro IKZF1 HiBit Assay (HEK293T Flp-in-HiBiT-IKZF1 stable cell line); type: cell-based; conditions: HEK293T Flp-in-HiBiT-IKZF1 stable cell line, 6 hrs incubation; for DC50: read-out: IKZF1 HiBit DC50; for Dmax: HEK-293T, read-out: IKZF1 HiBit Dmax (%)
Chain of IKZF1 (Q13422 whole entry): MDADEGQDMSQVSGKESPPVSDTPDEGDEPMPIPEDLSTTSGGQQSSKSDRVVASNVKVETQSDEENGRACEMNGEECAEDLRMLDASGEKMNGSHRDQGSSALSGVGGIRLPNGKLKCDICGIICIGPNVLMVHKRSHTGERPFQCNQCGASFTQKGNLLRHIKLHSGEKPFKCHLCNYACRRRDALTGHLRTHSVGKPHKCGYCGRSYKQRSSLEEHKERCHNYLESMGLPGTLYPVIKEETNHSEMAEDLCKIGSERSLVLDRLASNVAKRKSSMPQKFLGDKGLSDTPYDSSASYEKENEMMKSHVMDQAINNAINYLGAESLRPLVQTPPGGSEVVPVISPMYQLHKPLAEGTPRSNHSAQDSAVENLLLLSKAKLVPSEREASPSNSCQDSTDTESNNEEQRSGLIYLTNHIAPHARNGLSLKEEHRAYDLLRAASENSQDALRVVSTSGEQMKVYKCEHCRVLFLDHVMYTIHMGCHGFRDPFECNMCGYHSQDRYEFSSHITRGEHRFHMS
Chain of IKZF1 (Q96SW2 whole entry): as the sequence (Q96SW2 whole entry) above
Chain of IKZF1 (Q16531 2-1140 partner): as the sequence (Q16531 2-1140 partner) above
Outline: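 Degradation was measured as loss of luminescence from the HiBiT-IKZF1 tag after 6 h compound treatment, with 0.1% final DMSO, in stable HEK293T Flp-in cells. Values were normalized to DMSO, giving the 50% degradation concentration and the maximal degradation range.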

Chain of CRBN/DDB1 (Q96SW2 whole entry, species assumed): as the sequence (Q96SW2 whole entry) above
Chain of CRBN/DDB1 (Q16531 whole entry partner, species assumed): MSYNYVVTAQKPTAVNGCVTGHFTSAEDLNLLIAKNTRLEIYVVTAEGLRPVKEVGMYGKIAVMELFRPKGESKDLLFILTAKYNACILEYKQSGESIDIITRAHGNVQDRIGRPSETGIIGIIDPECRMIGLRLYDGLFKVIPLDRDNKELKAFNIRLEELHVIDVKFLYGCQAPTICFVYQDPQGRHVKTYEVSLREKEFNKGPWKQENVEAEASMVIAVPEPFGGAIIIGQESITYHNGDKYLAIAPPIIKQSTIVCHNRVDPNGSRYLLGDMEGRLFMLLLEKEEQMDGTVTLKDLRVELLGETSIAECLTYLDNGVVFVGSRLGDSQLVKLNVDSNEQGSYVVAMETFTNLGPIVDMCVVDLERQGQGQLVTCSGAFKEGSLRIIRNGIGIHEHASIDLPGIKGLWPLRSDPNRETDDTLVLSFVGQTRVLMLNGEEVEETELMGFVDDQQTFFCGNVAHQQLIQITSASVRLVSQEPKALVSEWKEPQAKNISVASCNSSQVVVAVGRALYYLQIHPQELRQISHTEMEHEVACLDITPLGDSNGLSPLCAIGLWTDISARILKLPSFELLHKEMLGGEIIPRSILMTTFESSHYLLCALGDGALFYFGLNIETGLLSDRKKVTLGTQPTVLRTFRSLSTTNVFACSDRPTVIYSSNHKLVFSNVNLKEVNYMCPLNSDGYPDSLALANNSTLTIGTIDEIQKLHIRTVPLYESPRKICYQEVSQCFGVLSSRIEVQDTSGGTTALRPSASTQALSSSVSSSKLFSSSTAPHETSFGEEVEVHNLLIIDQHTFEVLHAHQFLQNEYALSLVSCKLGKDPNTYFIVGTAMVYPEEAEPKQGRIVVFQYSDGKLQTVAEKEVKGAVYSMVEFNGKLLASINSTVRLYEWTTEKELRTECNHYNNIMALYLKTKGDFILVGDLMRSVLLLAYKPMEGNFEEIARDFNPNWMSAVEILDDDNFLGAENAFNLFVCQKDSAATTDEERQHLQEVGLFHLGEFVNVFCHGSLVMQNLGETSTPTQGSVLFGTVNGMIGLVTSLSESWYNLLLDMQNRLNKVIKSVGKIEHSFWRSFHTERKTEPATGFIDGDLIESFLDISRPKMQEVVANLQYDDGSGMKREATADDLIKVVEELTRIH

| Structure (SMILES) | IC50 (CRBN/DDB1) [µM] | DC50 (IKZF2) [µM] | Dmax (IKZF2) [%] | DC50 (IKZF1) [µM] | Dmax (IKZF1) [%] |
| --- | --- | --- | --- | --- | --- |
| CC#CCn1ccc2c(CN3CCCC3)cc(-c3ccc4c(c3)CN(C3CCC(=O)NC3=O)C4=O)nc21 (stereo not shown) [Example 148, 3-(5-(1-(but-2-yn-1-yl)-4-(pyrrolidin-1-ylmethyl)-1H-pyrrolo[2,3-b]pyridin-6-yl)-1-oxoisoindolin-2-yl) piperidine-2,6-dione] | 0.1 to 0.5 | 0.001 to 0.01 | 60 to 80 | > 10 | < 20 |
| CN(C)C(=O)Cn1ccc2c(CN3CCCC3)cc(-c3ccc4c(c3)CN(C3CCC(=O)NC3=O)C4=O)nc21 (stereo not shown) [Example 149, 2-(6-(2-(2,6-dioxopiperidin-3-yl)-1-oxoisoindolin-5-yl)-4-(pyrrolidin-1-ylmethyl)-1H-pyrrolo[2,3-b]pyridin-1-yl)-N,N-dimethylacetamide] | 1 to 5 | 0.1 to 1 | 20 to 40 | > 10 | < 20 |
| O=C1CCC(N2Cc3cc(-c4cc(CN5CCCC5)c5ccn(C6CCCC6)c5n4)ccc3C2=O)C(=O)N1 (stereo not shown) [Example 154, 3-(5-(1-cyclopentyl-4-(pyrrolidin-1-ylmethyl)-1H-pyrrolo[2,3-b]pyridin-6-yl)-1-oxoisoindolin-2-yl) piperidine-2,6-dione] | 0.5 to 1 | 0.001 to 0.01 | 60 to 80 | > 10 | < 20 |
| O=C1CCC(N2Cc3cc(-c4cc(CN5CCC(CO)C5)c5ccn(C6CC6)c5n4)ccc3C2=O)C(=O)N1 (stereo not shown) [Example 155, 3-(5-(1-cyclopropyl-4-((3-(hydroxymethyl)pyrrolidin-1-yl)methyl)-1H-pyrrolo[2,3-b]pyridin-6-yl)-1-oxoisoindolin-2-yl) piperidine-2,6-dione] | 0.1 to 0.5 | 0.001 to 0.01 | > 80 | 0.01 to 0.1 | 20 to 40 |
| O=C1CCC(N2Cc3cc(-c4cc(CN5CCC5)c5[nH]ccc5n4)ccc3C2=O)C(=O)N1 (stereo not shown) [Example 156, 3-(5-(7-(azetidin-1-ylmethyl)-1H-pyrrolo[3,2-b]pyridin-5-yl)-1-oxoisoindolin-2-yl) piperidine-2,6-dione] | 1 to 5 | 0.001 to 0.01 | > 80 | 0.01 to 0.1 | 20 to 40 |
| O=C1CCC(N2Cc3cc(-c4cc(CN5CCC(F)C5)c5ccn(C6COC6)c5n4)ccc3C2=O)C(=O)N1 (stereo not shown) [Example 157, 3-(5-(4-((3-fluoropyrrolidin-1-yl)methyl)-1-(oxetan-3-yl)-1H-pyrrolo[2,3-b]pyridin-6-yl)-1-oxoisoindolin-2-yl) piperidine-2,6-dione] | 0.5 to 1 | 0.001 to 0.01 | > 80 | > 10 | < 20 |
| O=C1CCC(N2Cc3cc(-c4cc(CN5CCC(O)CC5)c5ccn(C6CC6)c5n4)ccc3C2=O)C(=O)N1 (stereo not shown) [Example 159, 3-(5-(1-cyclopropyl-4-((4-hydroxypiperidin-1-yl)methyl)-1H-pyrrolo[2,3-b]pyridin-6-yl)-1-oxoisoindolin-2-yl) piperidine-2,6-dione] | 0.1 to 0.5 | 0.001 to 0.01 | 60 to 80 | 0.01 to 0.1 | 20 to 40 |
| O=C1CCC(N2Cc3cc(-c4cc(CN5CC(O)C5)c5ccn(C6COC6)c5n4)ccc3C2=O)C(=O)N1 (stereo not shown) [Example 160, 3-(5-(4-((3-hydroxyazetidin-1-yl)methyl)-1-(oxetan-3-yl)-1H-pyrrolo[2,3-b]pyridin-6-yl)-1-oxoisoindolin-2-yl) piperidine-2,6-dione] | < 0.1 | 0.01 to 0.1 | 40 to 60 | > 10 | < 20 |
| O=C1CCC(N2Cc3cc(-c4cc(CN5CC(CO)C5)c5ccn(C6COC6)c5n4)ccc3C2=O)C(=O)N1 (stereo not shown) [Example 165, 3-(5-(4-((3-(hydroxymethyl)azetidin-1-yl)methyl)-1-(oxetan-3-yl)-1H-pyrrolo[2,3-b]pyridin-6-yl)-1-oxoisoindolin-2-yl) piperidine-2,6-dione] | 0.1 to 0.5 | 0.01 to 0.1 | 60 to 80 | > 10 | < 20 |
| O=C1CCC(N2Cc3cc(-c4cc(CN5CCCC5)c5ccn(C6CCCCC6)c5n4)ccc3C2=O)C(=O)N1 (stereo not shown) [Example 166, 3-(5-(1-cyclohexyl-4-(pyrrolidin-1-ylmethyl)-1H-pyrrolo[2,3-b]pyridin-6-yl)-1-oxoisoindolin-2-yl) piperidine-2,6-dione] | 0.1 to 0.5 | 0.001 to 0.01 | 40 to 60 | > 10 | < 20 |
| CN(C)C(=O)CC1CCN(Cc2cc(-c3ccc4c(c3)CN(C3CCC(=O)NC3=O)C4=O)nc3[nH]ccc23)C1 (stereo not shown) [Example 167, 2-(1-((6-(2-(2,6-dioxopiperidin-3-yl)-1-oxoisoindolin-5-yl)-1H-pyrrolo[2,3-b]pyridin-4-yl)methyl)pyrrolidin-3-yl)-N,N-dimethylacetamide] | 0.1 to 0.5 | 0.01 to 0.1 | 60 to 80 | 0.1 to 1 | 20 to 40 |
| O=C1CCC(N2Cc3cc(-c4cc(CN5CCCC5)c5ccn(C6CNC6)c5n4)ccc3C2=O)C(=O)N1 (stereo not shown) [Example 168, 3-(5-(1-(azetidin-3-yl)-4-(pyrrolidin-1-ylmethyl)-1H-pyrrolo[2,3-b]pyridin-6-yl)-1-oxoisoindolin-2-yl) piperidine-2,6-dione] | 0.5 to 1 | 0.1 to 1 | 60 to 80 | 1 to 10 | 20 to 40 |
| CN1CC(n2ccc3c(CN4CCCC4)cc(-c4ccc5c(c4)CN(C4CCC(=O)NC4=O)C5=O)nc32)C1 (stereo not shown) [Example 169, 3-(5-(1-(1-methylazetidin-3-yl)-4-(pyrrolidin-1-ylmethyl)-1H-pyrrolo[2,3-b]pyridin-6-yl)-1-oxoisoindolin-2-yl) piperidine-2,6-dione] | < 0.1 | 0.001 to 0.01 | > 80 | 0.01 to 0.1 | 40 to 60 |
| O=C1CCC(N2Cc3cc(-c4cc(CN5CCCC5)c5ccn(C6CCOCC6)c5n4)ccc3C2=O)C(=O)N1 (stereo not shown) [Example 171, 3-(1-oxo-5-(4-(pyrrolidin-1-ylmethyl)-1-(tetrahydro-2H-pyran-4-yl)-1H-pyrrolo[2,3-b]pyridin-6-yl)isoindolin-2-yl) piperidine-2,6-dione] | 0.1 to 0.5 | 0.001 to 0.01 | 60 to 80 | > 10 | < 20 |
| CC(C)n1ccc2nc(-c3ccc4c(c3)CN(C3CCC(=O)NC3=O)C4=O)cc(CN3CCCC3)c21 (stereo not shown) [Example 172, 3-(5-(1-isopropyl-7-(pyrrolidin-1-ylmethyl)-1H-pyrrolo[3,2-b]pyridin-5-yl)-1-oxoisoindolin-2-yl) piperidine-2,6-dione] | 1 to 5 | 0.01 to 0.1 | 60 to 80 | 0.1 to 1 | 20 to 40 |
| O=C1CCC(N2Cc3cc(-c4cc(CN5CCCC5)c5c(ccn5CCCO)n4)ccc3C2=O)C(=O)N1 (stereo not shown) [Example 173, 3-(5-(1-(3-hydroxypropyl)-7-(pyrrolidin-1-ylmethyl)-1H-pyrrolo[3,2-b]pyridin-5-yl)-1-oxoisoindolin-2-yl) piperidine-2,6-dione] | 1 to 5 | 0.01 to 0.1 | 60 to 80 | 0.1 to 1 | 20 to 40 |
| O=C1CCC(N2Cc3cc(-c4cc(CN5CCCC5)c5c(ccn5C5CC5)n4)ccc3C2=O)C(=O)N1 (stereo not shown) [Example 174, 3-(5-(1-cyclopropyl-7-(pyrrolidin-1-ylmethyl)-1H-pyrrolo[3,2-b]pyridin-5-yl)-1-oxoisoindolin-2-yl) piperidine-2,6-dione] | 0.5 to 1 | 0.001 to 0.01 | 60 to 80 | 0.01 to 0.1 | 20 to 40 |
| O=C1CCC(N2Cc3cc(-c4cc(CN5CCCC5)c5c(ccn5CCO)n4)ccc3C2=O)C(=O)N1 (stereo not shown) [Example 175, 3-(5-(1-(2-hydroxyethyl)-7-(pyrrolidin-1-ylmethyl)-1H-pyrrolo[3,2-b]pyridin-5-yl)-1-oxoisoindolin-2-yl) piperidine-2,6-dione] | 1 to 5 | 0.01 to 0.1 | 60 to 80 | > 10 | < 20 |
| CC(C)n1nc(N)c2nc(-c3ccc4c(c3)CN(C3CCC(=O)NC3=O)C4=O)cc(CN3CCCC3)c21 (stereo not shown) [Example 177, 3-(5-(3-amino-1-isopropyl-7-(pyrrolidin-1-ylmethyl)-1H-pyrazolo[4,3-b]pyridin-5-yl)-1-oxoisoindolin-2-yl) piperidine-2,6-dione] | 0.5 to 1 | 0.001 to 0.01 | 60 to 80 | 0.01 to 0.1 | 20 to 40 |
| CCn1nc(N)c2nc(-c3ccc4c(c3)CN(C3CCC(=O)NC3=O)C4=O)cc(CN3CCCC3)c21 (stereo not shown) [Example 178, 3-(5-(3-amino-1-ethyl-7-(pyrrolidin-1-ylmethyl)-1H-pyrazolo[4,3-b]pyridin-5-yl)-1-oxoisoindolin-2-yl) piperidine-2,6-dione] | 0.5 to 1 | 0.001 to 0.01 | 60 to 80 | 0.1 to 1 | 20 to 40 |
